Test results: patent US8476434B2, “Protein kinase modulators and method of use” (Amgen Inc., priority 2004, dated 2013)

Molecular target: T1, LCK KD GST (225-509) (Homo sapiens, UniProt P06239)
T1 construct: LCK KD GST (225-509); GST
Assay: LCK Homogenous Time Resolved Fluorescent (HTRF) kinase assay
Assay type: biochemical
Method: The LCK HTRF assay begins with LCK in the presence of ATP phosphorylating the biotinylated peptide Gastrin. The reaction incubates for 90 min. To quench the assay detection reagents are added which both stop the reaction by diluting out the enzyme and chelating the metals due to the presence of EDTA. Once the detection reagents are added the assay incubates for 30 min to allow for equilibration of the detection reagents.
Buffer conditions are as follows: 50 mM HEPES pH 7.5, 50 mM NaCl, 20 mM MgCl, 5 mM MnCl, 2 mM DTT, 0.05% BSA.
The assay is quenched and stopped with 160 μL of detection reagent. Detection reagents are as follows: Buffer made of 50 mM Tris, pH 7.5, 100 mM NaCl, 3 mM EDTA, 0.05% BSA, 0.1% Tween20.
The assay plate is read in either a Discovery or a RubyStar.

T1 sequence (P06239 225-509): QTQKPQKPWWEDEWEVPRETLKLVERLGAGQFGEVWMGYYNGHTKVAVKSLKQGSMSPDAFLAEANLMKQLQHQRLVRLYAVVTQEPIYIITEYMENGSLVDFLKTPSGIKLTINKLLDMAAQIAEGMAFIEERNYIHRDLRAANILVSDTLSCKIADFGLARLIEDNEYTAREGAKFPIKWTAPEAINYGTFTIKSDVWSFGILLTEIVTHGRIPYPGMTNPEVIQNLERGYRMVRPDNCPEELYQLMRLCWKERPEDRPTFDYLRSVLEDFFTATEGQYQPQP

IC50, < 1000 nM:
CNc1nccc(-c2cccnc2Oc2cc(C(=O)Nc3cc(C(F)(F)F)ccc3N(C)CCCN(C)C)ccc2C)n1 [N-(2-((3-(dimethylamino)propyl)(methyl)amino)-5-(trifluoromethyl)phenyl)-4-methyl-3-((3-(2-(methylamino)-4-pyrimidinyl)-2-pyridinyl)oxy)benzamide]
CNc1nccc(-c2cccnc2Oc2ccc(NC(=O)Nc3cc(Cl)ccc3N(C)CCCN(C)C)cc2C)n1 [N-(5-chloro-2-((3-(dimethylamino)propyl)(methyl)amino)phenyl)-N′-(3-methyl-4-((3-(2-(methylamino)-4-pyrimidinyl)-2-pyridinyl)oxy)phenyl)urea]
CCNc1ncnc(-c2cccnc2Oc2cc(C(=O)Nc3cccc(C(C)C)c3)ccc2C)n1 [3-((3-(4-(ethylamino)-1,3,5-triazin-2-yl)-2-pyridinyl)oxy)-4-methyl-N-(3-(1-methylethyl)phenyl)benzamide]
Cc1ccc(C(=O)Nc2cccc(C(F)(F)F)c2)cc1Oc1ncccc1-c1ccncn1 [4-methyl-3-((3-(4-pyrimidinyl)-2-pyridinyl)oxy)-N-(3-(trifluoromethyl)phenyl)benzamide]
CNc1ncnc(-c2cccnc2Oc2cc(NC(=O)c3cccc(OC(F)(F)F)c3)ccc2C)n1 [N-(4-methyl-3-((3-(4-(methylamino)-1,3,5-triazin-2-yl)-2-pyridinyl)oxy)phenyl)-3-((trifluoromethyl)oxy)benzamide]
CNc1nccc(-c2cccnc2Oc2cc(C(=O)Nc3cc(C(F)(F)F)ccc3N3CCCCC3)ccc2Cl)n1 [4-chloro-3-((3-(2-(methylamino)-4-pyrimidinyl)-2-pyridinyl)oxy)-N-(2-(1-piperidinyl)-5-(trifluoromethyl)phenyl)benzamide]
CCOc1cccc(NC(=O)c2ccc(C)c(Nc3ncccc3-c3ccncn3)c2)c1 [N-(3-(ethyloxy)phenyl)-4-methyl-3-((3-(4-pyrimidinyl)-2-pyridinyl)amino)benzamide]
CNc1nccc(-c2cccnc2Oc2cc(C(=O)Nc3cccc(OCc4ccccc4)c3)ccc2C)n1 [4-methyl-3-((3-(2-(methylamino)-4-pyrimidinyl)-2-pyridinyl)oxy)-N-(3-((phenylmethyl)oxy)phenyl)benzamide]
CNc1nccc(-c2cccnc2Oc2cc(C(=O)Nc3cc(C(F)(F)F)ccc3N3CCCCC3)ccc2F)n1 [4-fluoro-3-((3-(2-(methylamino)-4-pyrimidinyl)-2-pyridinyl)oxy)-N-(2-(1-piperidinyl)-5-(trifluoromethyl)phenyl)benzamide]
CNc1nccc(-c2cccnc2Oc2cc(C(=O)N[C@H](C)c3ccccc3)ccc2C)n1 [4-methyl-3-((3-(2-(methylamino)-4-pyrimidinyl)-2-pyridinyl)oxy)-N-((1R)-1-phenylethyl)benzamide]
Cc1ccc(C(=O)Nc2cc(C(C)(C)C)nn2-c2ccccc2)cc1Oc1ncccc1-c1ccncn1 [N-(3-(1,1-dimethylethyl)-1-phenyl-1H-pyrazol-5-yl)-4-methyl-3-((3-(4-pyrimidinyl)-2-pyridinyl)oxy)benzamide]
C#Cc1cc(Oc2ncccc2-c2ccnc(NC)n2)cc(C(=O)Nc2cccc(C(F)(F)F)c2)c1 [3-ethynyl-5-((3-(2-(methylamino)-4-pyrimidinyl)-2-pyridinyl)oxy)-N-(3-(trifluoromethyl)phenyl)benzamide]
CNc1ncnc(-c2cccnc2Oc2ccc(NC(=O)Nc3cc(C(F)(F)F)ccc3N3CC[C@H](N(C)C)C3)c3ccccc23)n1 [N-(2-((3S)-3-(dimethylamino)-1-pyrrolidinyl)-5-(trifluoromethyl)phenyl)-N′-(4-((3-(4-(methylamino)-1,3,5-triazin-2-yl)-2-pyridinyl)oxy)-1-naphthalenyl)urea]
CNc1ncnc(-c2cccnc2Oc2cc(C(=O)Nc3cccc(C(F)(F)F)c3C)ccc2C)n1 [4-methyl-3-((3-(4-(methylamino)-1,3,5-triazin-2-yl)-2-pyridinyl)oxy)-N-(2-methyl-3-(trifluoromethyl)phenyl)benzamide]
COc1cc(-c2cccnc2Oc2cc(C(=O)Nc3cccc(C(F)(F)F)c3)ccc2C)ccn1 [4-methyl-3-((2′-(methyloxy)-3,4′-bipyridin-2-yl)oxy)-N-(3-(trifluoromethyl)phenyl)benzamide]
CNc1nccc(-c2cc(Cl)cnc2Oc2c(C)cccc2C)n1 [4-(5-chloro-2-((2,6-dimethylphenyl)oxy)-3-pyridinyl)-N-methyl-2-pyrimidinamine]
CNc1nccc(-c2cccnc2Oc2ccc(NC(=O)Nc3cc(Cl)ccc3Cl)cc2C)n1 [N-(2,5-dichlorophenyl)-N′-(3-methyl-4-((3-(2-(methylamino)-4-pyrimidinyl)-2-pyridinyl)oxy)phenyl)urea]
CNc1nccc(-c2cccnc2Oc2cc(Br)cc(C(=O)Nc3cccc(C(C)C)c3)c2)n1 [3-bromo-5-((3-(2-(methylamino)-4-pyrimidinyl)-2-pyridinyl)oxy)-N-(3-(1-methylethyl)phenyl)benzamide]
CNc1nccc(-c2cccnc2Oc2ccc(F)c(C(=O)Nc3cc(C4CC4)ccc3N(C)CCCN(C)C)c2)n1 [N-(5-cyclopropyl-2-((3-(dimethylamino)propyl)(methyl)amino)phenyl)-2-fluoro-5-((3-(2-(methylamino)-4-pyrimidinyl)-2-pyridinyl)oxy)benzamide]
CNc1nccc(-c2cccnc2Oc2cc(C(=O)Nc3cc(C(C)(C)C)ccc3OC)ccc2C)n1 [N-(5-(1,1-dimethylethyl)-2-(methyloxy)phenyl)-4-methyl-3-((3-(2-(methylamino)-4-pyrimidinyl)-2-pyridinyl)oxy)benzamide]
COc1ccc(C2CCCCC2)cc1NC(=O)c1ccc(C)c(Oc2ncccc2-c2ncnc(NCCO)n2)c1 [N-(5-cyclohexyl-2-(methyloxy)phenyl)-3-((3-(4-((2-hydroxyethyl)amino)-1,3,5-triazin-2-yl)-2-pyridinyl)oxy)-4-methylbenzamide]
CNc1nccc(-c2cccnc2Oc2cc(C(=O)Nc3cccc(Cc4ccccc4)c3)ccc2C)n1 [4-methyl-3-((3-(2-(methylamino)-4-pyrimidinyl)-2-pyridinyl)oxy)-N-(3-(phenylmethyl)phenyl)benzamide]
CNc1ncnc(-c2cccnc2Oc2cc(C(=O)Nc3cc(C4CCCCC4)ccc3OC)ccc2C)n1 [N-(5-cyclohexyl-2-(methyloxy)phenyl)-4-methyl-3-((3-(4-(methylamino)-1,3,5-triazin-2-yl)-2-pyridinyl)oxy)benzamide]
COc1ccc(C(=O)Nc2cccc(C(F)(F)F)c2)cc1Nc1ncccc1-c1ccncn1 [4-(methyloxy)-3-((3-(4-pyrimidinyl)-2-pyridinyl)amino)-N-(3-(trifluoromethyl)phenyl)benzamide]
CC(C)c1cccc(NC(=O)c2ccc(F)c(Nc3ncccc3-c3ncnc(NCCCn4ccnc4)n3)c2)c1 [4-fluoro-3-((3-(4-((3-(1H-imidazol-1-yl)propyl)amino)-1,3,5-triazin-2-yl)-2-pyridinyl)amino)-N-(3-(1-methylethyl)phenyl)benzamide]
CNc1cc(-c2cccnc2Oc2ccc(Cl)c(NC(=O)c3cccc(C(C)C)c3)c2)ccn1 [N-(2-chloro-5-((2′-(methylamino)-3,4′-bipyridin-2-yl)oxy)phenyl)-3-(1-methylethyl)benzamide]
CNc1nccc(-c2cccnc2Oc2cc(NC(=O)c3cccc(N(C)C)c3)cc(C(F)(F)F)c2)n1 [3-(dimethylamino)-N-(3-((3-(2-(methylamino)-4-pyrimidinyl)-2-pyridinyl)oxy)-5-(trifluoromethyl)phenyl)benzamide]
CNc1nccc(-c2cccnc2Oc2ccc(NC(=O)Nc3cc(C(F)(F)F)ccc3F)c3ccccc23)n1 [N-(2-fluoro-5-(trifluoromethyl)phenyl)-N′-(4-((3-(2-(methylamino)-4-pyrimidinyl)-2-pyridinyl)oxy)-1-naphthalenyl)urea]
CNc1nccc(-c2cccnc2Oc2cccc(C(=O)Nc3cccc(C(C)C)c3)c2)n1 [3-((3-(2-(methylamino)-4-pyrimidinyl)-2-pyridinyl)oxy)-N-(3-(1-methylethyl)phenyl)benzamide]
CNc1nccc(-c2cccnc2Oc2cc(C(=O)Nc3cc(-c4ccccc4)ccc3OC)ccc2C)n1 [4-methyl-3-((3-(2-(methylamino)-4-pyrimidinyl)-2-pyridinyl)oxy)-N-(4-(methyloxy)-1,1′-biphenyl-3-yl)benzamide]
